From patent publication US20230079819A1, “COMPOUNDS AND USES THEREOF” (Foghorn Therapeutics Inc., priority 2019, published 2023)
Like-named read-outs stand apart in the source and are kept apart here.

Assays:
BRM = target: T1, BRM (Homo sapiens, UniProt P51531); test: ATPase catalytic activity of BRM, ADP-Glo in vitro biochemical assay; details: 30 nM BRM, 400 μM ATP
T1 construct: made in house; host or cells: High Five insect cells

BRG-1 = target: T2, BRG-1 (Homo sapiens, UniProt P51532); test: ATPase catalytic activity of BRG-1, ADP-Glo in vitro biochemical assay; details: 30 nM BRG-1, 400 μM ATP
T2 construct: made in house; host or cells: High Five insect cells
T2 sequence (P51532 whole entry): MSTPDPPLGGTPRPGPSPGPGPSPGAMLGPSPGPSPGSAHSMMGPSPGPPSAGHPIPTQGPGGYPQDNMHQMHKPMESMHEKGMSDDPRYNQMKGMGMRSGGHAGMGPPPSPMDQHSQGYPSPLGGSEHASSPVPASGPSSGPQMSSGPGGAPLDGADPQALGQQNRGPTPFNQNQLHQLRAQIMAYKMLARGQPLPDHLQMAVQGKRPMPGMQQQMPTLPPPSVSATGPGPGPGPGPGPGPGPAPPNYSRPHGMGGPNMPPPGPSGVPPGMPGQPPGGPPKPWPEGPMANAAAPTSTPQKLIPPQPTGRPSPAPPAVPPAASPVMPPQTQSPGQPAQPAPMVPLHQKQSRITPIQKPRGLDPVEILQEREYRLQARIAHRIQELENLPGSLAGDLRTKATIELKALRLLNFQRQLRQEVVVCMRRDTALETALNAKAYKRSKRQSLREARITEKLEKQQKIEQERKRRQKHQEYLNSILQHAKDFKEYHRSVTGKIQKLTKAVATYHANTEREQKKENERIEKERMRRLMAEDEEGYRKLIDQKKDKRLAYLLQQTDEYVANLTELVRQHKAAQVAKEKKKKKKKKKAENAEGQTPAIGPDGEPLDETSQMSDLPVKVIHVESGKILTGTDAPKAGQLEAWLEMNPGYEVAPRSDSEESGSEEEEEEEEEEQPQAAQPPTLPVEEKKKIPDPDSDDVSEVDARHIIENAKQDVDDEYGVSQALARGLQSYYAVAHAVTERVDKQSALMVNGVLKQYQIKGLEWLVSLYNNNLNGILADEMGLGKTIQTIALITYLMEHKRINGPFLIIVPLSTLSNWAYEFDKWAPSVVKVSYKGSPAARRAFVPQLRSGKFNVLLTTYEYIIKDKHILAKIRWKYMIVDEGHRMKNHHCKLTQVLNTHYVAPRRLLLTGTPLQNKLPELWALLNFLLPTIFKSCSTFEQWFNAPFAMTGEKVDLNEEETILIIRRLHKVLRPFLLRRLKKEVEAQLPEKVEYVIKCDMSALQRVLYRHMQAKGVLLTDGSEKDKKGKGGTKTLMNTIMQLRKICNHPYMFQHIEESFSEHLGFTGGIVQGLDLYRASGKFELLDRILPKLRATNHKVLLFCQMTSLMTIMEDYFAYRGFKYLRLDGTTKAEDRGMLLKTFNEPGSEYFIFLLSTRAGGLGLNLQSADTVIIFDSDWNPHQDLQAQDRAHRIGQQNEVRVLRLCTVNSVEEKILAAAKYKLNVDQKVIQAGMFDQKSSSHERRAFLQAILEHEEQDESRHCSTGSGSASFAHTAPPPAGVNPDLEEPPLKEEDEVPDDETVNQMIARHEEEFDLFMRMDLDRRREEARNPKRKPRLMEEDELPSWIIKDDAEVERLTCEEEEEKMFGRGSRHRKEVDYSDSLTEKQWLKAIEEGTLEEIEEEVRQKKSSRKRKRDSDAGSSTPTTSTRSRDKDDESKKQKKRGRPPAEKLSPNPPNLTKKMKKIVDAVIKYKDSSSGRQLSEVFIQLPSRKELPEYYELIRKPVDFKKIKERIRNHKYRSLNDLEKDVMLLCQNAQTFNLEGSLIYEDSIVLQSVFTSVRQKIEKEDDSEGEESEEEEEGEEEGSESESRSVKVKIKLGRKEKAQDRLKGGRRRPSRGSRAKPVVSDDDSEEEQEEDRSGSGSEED

[1] = ATPase catalytic activity, read-out: BRM IP50 (μM)*
[2] = ATPase catalytic activity, read-out: BRG1 IP50 (μM)*
[3] = ATPase catalytic activity, read-out: BRM IP50
[4] = ATPase catalytic activity, read-out: BRG1 IP50

T1 sequence (P51531 whole entry): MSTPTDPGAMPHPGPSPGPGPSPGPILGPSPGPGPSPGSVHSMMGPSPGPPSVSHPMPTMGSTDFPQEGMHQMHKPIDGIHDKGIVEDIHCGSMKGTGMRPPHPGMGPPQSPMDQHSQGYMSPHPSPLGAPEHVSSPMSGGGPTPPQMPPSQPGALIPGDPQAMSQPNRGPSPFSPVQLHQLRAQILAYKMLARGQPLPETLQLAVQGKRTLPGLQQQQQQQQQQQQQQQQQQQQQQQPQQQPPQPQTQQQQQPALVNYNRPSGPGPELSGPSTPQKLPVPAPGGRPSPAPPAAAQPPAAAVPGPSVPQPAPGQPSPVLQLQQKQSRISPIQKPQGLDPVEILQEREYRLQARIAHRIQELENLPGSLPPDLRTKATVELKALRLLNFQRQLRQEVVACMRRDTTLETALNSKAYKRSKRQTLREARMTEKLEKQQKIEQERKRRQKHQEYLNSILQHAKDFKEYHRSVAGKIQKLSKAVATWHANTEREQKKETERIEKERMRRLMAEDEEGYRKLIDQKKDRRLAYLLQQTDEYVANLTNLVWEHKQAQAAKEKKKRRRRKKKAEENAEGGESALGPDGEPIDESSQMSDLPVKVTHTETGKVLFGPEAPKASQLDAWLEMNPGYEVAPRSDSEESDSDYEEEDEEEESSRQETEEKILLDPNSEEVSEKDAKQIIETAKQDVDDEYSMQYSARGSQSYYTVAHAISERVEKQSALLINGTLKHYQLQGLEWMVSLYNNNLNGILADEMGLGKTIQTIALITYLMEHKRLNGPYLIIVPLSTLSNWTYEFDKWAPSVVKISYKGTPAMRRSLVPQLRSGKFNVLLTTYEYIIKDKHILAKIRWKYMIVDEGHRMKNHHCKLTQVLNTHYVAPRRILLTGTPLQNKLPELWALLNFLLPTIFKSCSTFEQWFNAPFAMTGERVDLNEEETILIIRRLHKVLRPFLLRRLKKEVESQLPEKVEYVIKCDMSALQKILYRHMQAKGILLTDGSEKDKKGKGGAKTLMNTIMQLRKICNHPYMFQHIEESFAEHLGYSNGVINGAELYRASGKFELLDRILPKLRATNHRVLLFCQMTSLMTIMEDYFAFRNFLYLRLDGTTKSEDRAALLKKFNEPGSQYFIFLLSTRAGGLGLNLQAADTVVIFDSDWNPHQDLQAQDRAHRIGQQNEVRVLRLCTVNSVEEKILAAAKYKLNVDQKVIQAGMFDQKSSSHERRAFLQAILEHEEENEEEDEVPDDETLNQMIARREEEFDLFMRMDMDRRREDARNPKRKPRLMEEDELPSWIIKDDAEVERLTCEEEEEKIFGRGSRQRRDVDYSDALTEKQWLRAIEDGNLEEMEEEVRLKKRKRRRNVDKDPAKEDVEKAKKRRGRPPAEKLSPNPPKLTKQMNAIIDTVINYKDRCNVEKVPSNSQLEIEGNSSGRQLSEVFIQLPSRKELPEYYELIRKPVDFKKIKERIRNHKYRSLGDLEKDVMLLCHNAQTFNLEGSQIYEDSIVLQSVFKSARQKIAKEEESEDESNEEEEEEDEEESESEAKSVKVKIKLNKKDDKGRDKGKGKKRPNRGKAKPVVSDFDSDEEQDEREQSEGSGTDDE

Row | Compound | IC50 (BRM; [1]) | IC50 (BRG-1; [2]) | IC50 (BRM; [3]) | IC50 (BRG-1; [4]) | other results
1 | CS(=O)(=O)n1ccc(C(=O)NCC(=O)Nc2cccc(-c3cccc(-c4ccncc4)c3)n2)c1 [Compound 156, 1-(methylsulfonyl)-N-(2-oxo-2-((6-(3-(pyridin-4-yl)phenyl)pyridin-2-yl)amino)ethyl)-1H-pyrrole-3-carboxamide] | > 0.01 µM | > 0.01 µM |  |  | 
2 | C[C@@H]1CN(c2nccc(-c3csc(NC(=O)CNC(=O)c4ccn(C5(C)COC5)c4)n3)n2)C[C@H](C)O1 [Compound 324] | > 0.01 µM | > 0.01 µM |  |  | 
3 | CS(=O)(=O)n1ccc(C(=O)NCC(=O)Nc2nc(-c3cc(Cl)c4c(c3)OCO4)cs2)c1 [Compound 607] |  |  | > 0.01 µM | > 0.01 µM | 
4 | CS(=O)(=O)n1ccc(C(=O)NCC(=O)Nc2nc(-c3cccc(COc4ccccn4)c3)cs2)c1 [Compound 107, 1-(methylsulfonyl)-N-(2-oxo-2-((4-(3-((pyridin-2-yloxy)methyl)phenyl)thiazol-2-yl)amino)ethyl)-1H-pyrrole-3-carboxamide] | > 0.01 µM | > 0.01 µM |  |  | 
5 | CN(C)C(=O)N1CCN(c2cccc(-c3csc(NC(=O)CNC(=O)c4ccn(C(C)(C)C)c4)n3)n2)CC1 [Compound 640] |  |  | > 0.01 µM | > 0.1 µM | 
6 | CC(C)(C)n1ccc(C(=O)NCC(=O)Nc2nc(-c3cccc(N4CCC(S(C)(=O)=O)CC4)n3)cs2)c1 [Compound 656] |  |  | > 0.1 µM | > 0.1 µM | 
7 | CS(=O)(=O)n1ccc(C(=O)NCC(=O)Nc2nc(-c3cccc(-c4ccnc(C5(C(=O)O)CC5)c4)c3)cs2)c1 [Compound 14, 1-(4-(3-(2-(2-(1-(methylsulfonyl)-1H-pyrrole-3-carboxamido)acetamido)thiazol-4-yl)phenyl)pyridin-2-yl)cyclopropanecarboxylic acid] | < 0.01 µM | < 0.01 µM |  |  | 
8 | COC(=O)N1CCC[C@H](c2csc(NC(=O)CNC(=O)c3ccn(S(C)(=O)=O)c3)n2)C1 [Compound 579] |  |  | > 0.1 µM | > 0.1 µM | 
9 | C[C@@H]1CN(c2cncc(-c3csc(NC(=O)CNC(=O)c4ccn(C(C)(C)C)c4)n3)c2)C[C@H](C)O1 [Compound 685] |  |  | > 0.01 µM | > 0.1 µM | 
10 | CN(C)[C@H]1CCN(c2cccc(-c3csc(NC(=O)CNC(=O)c4ccn(C(C)(C)C)c4)n3)n2)C1 [Compound 623] |  |  | > 0.1 µM | > 0.1 µM | 
11 | CC(C)(C#N)n1ccc(C(=O)NCC(=O)Nc2nc(-c3cc(F)c4c(c3)OCC4)cs2)c1 [Compound 571] |  |  | < 0.01 µM | > 0.01 µM | 
12 | COC[C@H](NC(=O)c1ccn(S(C)(=O)=O)c1)C(=O)Nc1nc(-c2ccc(F)c(N3CCC3)c2)cs1 [Compound 549] |  |  | < 0.01 µM | > 0.01 µM | 
13 | COC[C@H](NC(=O)c1ccn(C(C)(C)C)c1)C(=O)Nc1nc(-c2ccc3c(F)cn(C)c(=O)c3c2)cs1 [Compound 561] |  |  | < 0.01 µM | < 0.01 µM | 
14 | CC(C)(C)n1ccc(C(=O)NCC(=O)Nc2nc(-c3cccc(N4CC[C@@H]5COC[C@H]5C4)n3)cs2)c1 [Compound 727] |  |  | < 0.01 µM | > 0.01 µM | 
15 | COC[C@H](NC(=O)c1ccn(S(C)(=O)=O)c1)C(=O)Nc1nc(-c2cccc(N3C[C@@H](C)O[C@@H](C)C3)c2F)cs1 [Compound 368] | > 0.01 µM | > 0.01 µM |  |  | 
16 | CC(C)(C)n1ccc(C(=O)NCC(=O)Nc2nc(-c3cccc(N4CC[C@@H]5CCO[C@H]5C4)n3)cs2)c1 (racemic) [Compound 650] |  |  | > 0.01 µM | > 0.1 µM | 
17 | CC(C)(C#N)n1ccc(C(=O)NCC(=O)Nc2nc(-c3cc(F)c4c(c3)OCC4)cs2)n1 [Compound 791] |  |  |  |  | IC50 (BRM; read-out: BRM IP50): > 0.01 µM; IC50 (BRG-1; read-out: BRG1 IP50): > 0.01 µM
18 | CS(=O)(=O)n1ccc(C(=O)NCC(=O)Nc2nc(-c3ccc4c(c3F)OCC4)cs2)c1 [Compound 264] | > 0.01 µM | > 0.01 µM |  |  | 

Further lines, with some results ahead:

Row | IC50 (BRM; [1]) | IC50 (BRG-1; [2]) | IC50 (BRM; [3]) | IC50 (BRG-1; [4]) | Compound | other results
19 |  |  | > 0.01 µM | > 0.01 µM | N#CC1(n2ccc(C(=O)NCC(=O)Nc3nc(-c4cccc(N5CCC5)n4)cs3)c2)COC1 [Compound 595] | 
20 | < 0.01 µM | < 0.01 µM |  |  | CS(=O)(=O)n1ccc(C(=O)NCC(=O)Nc2nc(-c3cccc(N4CCC(O)CC4)c3)cs2)c1 [Compound 94, N-(2-((4-(3-(4-hydroxypiperidin-1-yl)phenyl)thiazol-2-yl)amino)-2-oxoethyl)-1-(methylsulfonyl)-1H-pyrrole-3-carboxamide] | 
21 |  |  | > 0.1 µM | > 1 µM | C[C@@]1(n2ccc(C(=O)NCC(=O)Nc3nc(-c4cccc(N5CCC5)c4)cs3)c2)CC1(F)F [Compound 651] | 
22 | > 0.01 µM | > 0.01 µM |  |  | CN1CCOc2ccc(-c3csc(NC(=O)CNC(=O)c4ccn(C(C)(C)C)c4)n3)cc21 [Compound 283] | 
23 |  |  | > 0.1 µM | > 0.1 µM | CC(C)(C)n1ccc(C(=O)NCC(=O)Nc2nc(-c3cccc(C4CC(F)(F)C4)n3)cs2)c1 [Compound 481] | 
24 | > 0.1 µM | > 0.1 µM |  |  | CS(=O)(=O)n1ccc(C(=O)NCC(=O)Nc2nc(-c3cccc(N4CC5CC4CO5)c3)cs2)c1 (stereo not drawn) [Compound 214] | 
25 |  |  | < 0.01 µM | < 0.01 µM | C[C@@H]1CN(c2cccc(-c3csc(NC(=O)CNC(=O)c4ccn(C5(C(F)F)CC5)c4)n3)n2)C[C@H](C)O1 [Compound 737] | 
26 |  |  | > 0.01 µM | > 0.01 µM | CC(C)(F)COc1cccc(-c2csc(NC(=O)CNC(=O)c3ccn(S(C)(=O)=O)c3)n2)c1 [Compound 483] | 
27 | > 0.1 µM | > 0.1 µM |  |  | CN1CCn2nc(-c3cccc(-c4csc(NC(=O)CNC(=O)c5ccn(C(C)(C)C)c5)n4)c3)cc2C1 [Compound 143, 1-(tert-butyl)-N-(2-((4-(3-(5-methyl-4,5,6,7-tetrahydropyrazolo[1,5-a]pyrazin-2-yl)phenyl)thiazol-2-yl)amino)-2-oxoethyl)-1H-pyrrole-3-carboxamide] | 
28 | > 0.1 µM | > 0.1 µM |  |  | CC(C)(C)n1ccc(C(=O)NCC(=O)Nc2nc(-c3cccc(C#N)c3)cs2)c1 [Compound 35, 1-(tert-butyl)-N-(2-((4-(3-cyanophenyl)thiazol-2-yl)amino)-2-oxoethyl)-1H-pyrrole-3-carboxamide] | 
29 |  |  | < 0.01 µM | < 0.01 µM | C[C@@H]1CN(c2cccc(-c3csc(NC(=O)CNC(=O)c4ccn(S(C)(=O)=O)c4)n3)c2)CC[C@H]1O [Compound 423] | 
30 |  |  | > 0.1 µM | > 0.1 µM | N#CC1(n2ccc(C(=O)NCC(=O)Nc3nc(-c4cccc(OC5CC5)n4)cs3)c2)CC1 [Compound 559] | 
31 |  |  | > 0.01 µM | > 0.01 µM | CC(C)(C)n1ccc(C(=O)NCC(=O)Nc2nc(-c3cccc(N4CC[C@@H](F)C4)n3)cs2)c1 [Compound 647] | 
32 |  |  | < 0.01 µM | < 0.01 µM | CS(=O)(=O)n1ccc(C(=O)NCC(=O)Nc2nc(-c3cccc([C@H]4CC[C@H](O)CC4)c3)cs2)c1 [Compound 386, N-(2-((4-(3-((trans)-4-hydroxycyclohexyl)phenyl)thiazol-2-yl)amino)-2-oxoethyl)-1-(methylsulfonyl)-1H-pyrrole-3-carboxamide] | 
33 | < 0.01 µM | < 0.01 µM |  |  | C[C@@H]1CN(c2cccc(-c3csc(NC(=O)CNC(=O)c4ccn(S(C)(=O)=O)c4)n3)c2)C[C@H](C)O1 [Compound 10] | 
34 | > 0.1 µM | > 0.1 µM |  |  | CO[C@H]1CCCN(c2cccc(-c3csc(NC(=O)CNC(=O)c4ccn(C5(C)COC5)c4)n3)n2)C1 [Compound 313] | 
35 |  |  | > 0.01 µM | > 0.01 µM | CS(=O)(=O)n1ccc(C(=O)NCC(=O)Nc2nc(-c3cccc([C@H]4CC4(F)F)n3)cs2)c1 [Compound 609] | 
36 | > 0.01 µM | > 0.01 µM |  |  | CS(=O)(=O)n1ccc(C(=O)NCC(=O)Nc2nc(-c3cccc(C(F)F)c3)cs2)c1 [Compound 248] | 
37 |  |  | > 0.01 µM | > 0.01 µM | CN1CCOc2ccc(-c3csc(NC(=O)CNC(=O)c4ccn(C(C)(C)C#N)c4)n3)cc21 [Compound 590] | 
38 | > 0.01 µM | > 0.01 µM |  |  | CC(C)Oc1cccc(-c2csc(NC(=O)CNC(=O)c3ccn(S(C)(=O)=O)c3)n2)c1 [Compound 281] | 
39 |  |  | > 0.01 µM | > 0.01 µM | CC(C)(C)n1ccc(C(=O)NCC(=O)Nc2nc(-c3cccc(N4CCCC(n5cncn5)C4)n3)cs2)c1 (stereo not drawn) [Compound 709] | 
40 | > 0.01 µM | > 0.01 µM |  |  | CC1(C)CN(c2cccc(-c3csc(NC(=O)CNC(=O)c4ccn(S(C)(=O)=O)c4)n3)c2)CC(C)(C)O1 [Compound 203] | 
41 |  |  | < 0.01 µM | < 0.01 µM | CS(=O)(=O)n1ccc(C(=O)NCC(=O)Nc2nc(-c3cccc(-c4ccnc(N5CCC5)n4)c3)cs2)c1 [Compound 408, N-[2-[[4-[3-[2-(azetidin-1-yl)pyrimidin-4-yl]phenyl]thiazol-2-yl]amino]-2-oxo-ethyl]-1-methylsulfonyl-pyrrole-3-carboxamide] | 
42 |  |  | < 0.01 µM | > 0.01 µM | CS(=O)(=O)n1ccc(C(=O)NCC(=O)Nc2nc(-c3cccc(C4=CCCOC4)c3)cs2)c1 [Compound 396, N-[2-[[4-[3-(3,6-dihydro-2H-pyran-5-yl)phenyl]thiazol-2-yl]amino]-2-oxo-ethyl]-1-methylsulfonyl-pyrrole-3-carboxamide] | 
43 | > 0.01 µM | > 0.01 µM |  |  | CO[C@H]1CCCN(c2cccc(-c3csc(NC(=O)CNC(=O)c4ccn(S(C)(=O)=O)c4)n3)c2)C1 [Compound 11, (S)—N-(2-((4-(3-(3-methoxypiperidin-1-yl)phenyl)thiazol-2-yl)amino)-2-oxoethyl)-1-(methylsulfonyl)-1H-pyrrole-3-carboxamide] | 
44 |  |  | > 0.01 µM | > 0.01 µM | CN1CCn2nc(-c3cccc(-c4csc(NC(=O)CNC(=O)c5ccn(S(C)(=O)=O)c5)n4)c3)cc2C1=O [Compound 433] | 
45 | > 0.01 µM | > 0.01 µM |  |  | CC(C)(C)n1ccc(C(=O)NCC(=O)Nc2nc(-c3cccc(COC4CCOCC4)c3)cs2)c1 [Compound 125, 1-(tert-butyl)-N-(2-oxo-2-((4-(3-(((tetrahydro-2H-pyran-4-yl)oxy)methyl)phenyl)thiazol-2-yl)amino)ethyl)-1H-pyrrole-3-carboxamide] | 
